Measurements from ChEMBL document CHEMBL1201862, “PubChem BioAssay data set” (2004).
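The compound was tested at five concentrations on cells cultured in 96-well plates, with a 48-hour exposure period. Here, GI50 denotes the concentration required for 50% inhibition of growth.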 The source made the active and inactive calls. Cut-off read from the data, not from the text of the source: active = GI50 up to about 1.1 µM and inactive = higher.

Tests used:
Experiment in all cases: NCI anticancer screen, dose series, 48 h
SR = tested on: SR
NCI-H23 = tested on: NCI-H23
LOX IMVI = tested on: LOX IMVI
IGROV-1 = tested on: IGROV-1
PC-3 = tested on: PC-3
MCF7 = tested on: MCF7
SK-MEL-28 = tested on: SK-MEL-28
HOP-92 = tested on: HOP-92
CAKI-1 = tested on: CAKI-1
UO-31 = tested on: UO-31
786-0 = tested on: 786-0
TK-10 = tested on: TK-10
BT-549 = tested on: BT-549
SK-MEL-2 = tested on: SK-MEL-2
EKVX = tested on: EKVX
SW-620 = tested on: SW-620
SNB-19 = tested on: SNB-19
M14 = tested on: M14
MDA-N = tested on: MDA-N

Compound | GI50 (SR) | GI50 (NCI-H23) | GI50 (LOX IMVI) | GI50 (IGROV-1) | GI50 (PC-3) | GI50 (MCF7) | GI50 (SK-MEL-28) | GI50 (HOP-92) | GI50 (CAKI-1) | GI50 (UO-31) | GI50 (786-0) | GI50 (TK-10) | GI50 (BT-549) | GI50 (SK-MEL-2) | GI50 (EKVX) | GI50 (SW-620) | GI50 (SNB-19) | GI50 (M14) | GI50 (MDA-N)
COC(=O)c1cc2c(n1S(=O)(=O)c1ccc(C)cc1)C(=O)C(=O)c1[nH]cc(C(=O)OCc3ccccc3)c1-2 | 90.6 nM (active) | 64.9 nM (active) | 55.3 nM (active) | 197 nM (active) | 264 nM (active) | 66.8 nM (active) | 107 nM (active) | 236 nM (active) | 355 nM (active) | 211 nM (active) | 230 nM (active) | 716 nM (active) | 183 nM (active) | 112 nM (active) | 279 nM (active) | 51.4 nM (active) | 191 nM (active) | 62.1 nM (active) | < 10 nM (active)
COC(=O)c1ccccc1C1CN=NC12Cc1c(ccc3c1CCC3)C2=O (centres undefined) | 46200 nM (inactive) | 66200 nM (inactive) | 23800 nM (inactive) | 88700 nM (inactive) | 43800 nM (inactive) | 50900 nM (inactive) | 95100 nM (inactive) | 27400 nM (inactive) | > 100000 nM (inactive) | 80500 nM (inactive) | > 100000 nM (inactive) | > 100000 nM (inactive) | 92700 nM (inactive) | 35100 nM (inactive) | 45900 nM (inactive) | 65300 nM (inactive) | > 100000 nM (inactive) | 46500 nM (inactive) | 20100 nM (inactive)
COc1cc2cc(C(=O)N3CC(CCl)c4ccc([N+](C)(C)Cc5ccccc5[N+](=O)[O-])cc43)[nH]c2c(OC)c1OC (centres undefined) | 213 nM (active) | 762 nM (active) | 2310 nM (inactive) | 1820 nM (inactive) | 1680 nM (inactive) | 621 nM (active) | 2460 nM (inactive) | 2210 nM (inactive) | 1010 nM (active) | 1330 nM (inactive) | 1530 nM (inactive) | 2740 nM (inactive) | 1950 nM (inactive) | 1890 nM (inactive) | 3780 nM (inactive) | 2010 nM (inactive) | 2360 nM (inactive) | 1670 nM (inactive) | 2260 nM (inactive)
COc1ccc2nc3ccc(OC)cc3c([S+]([O-])Cc3ccc([N+](=O)[O-])cc3)c2c1 (centres undefined) | 8180 nM (inactive) | 6700 nM (inactive) | 5160 nM (inactive) | 5300 nM (inactive) | 14500 nM (inactive) | 1920 nM (inactive) | 5970 nM (inactive) | 3130 nM (inactive) | 15300 nM (inactive) | 6440 nM (inactive) | 2100 nM (inactive) | 5900 nM (inactive) | 18700 nM (inactive) | 17900 nM (inactive) | 16600 nM (inactive) | 2180 nM (inactive) | 21300 nM (inactive) | 7870 nM (inactive) | 14200 nM (inactive)
COc1ccc(/N=N/c2ccc3oc(=O)c(C(=O)Nc4ccc(OC)cc4)cc3c2)cc1 | 12000 nM (inactive) | 17400 nM (inactive) | 3710 nM (inactive) | 16100 nM (inactive) | 11000 nM (inactive) | 16100 nM (inactive) | 15600 nM (inactive) | 18400 nM (inactive) | 25600 nM (inactive) | 14000 nM (inactive) | 14100 nM (inactive) | 22400 nM (inactive) | 4930 nM (inactive) | 14000 nM (inactive) | 28500 nM (inactive) | 18200 nM (inactive) | 22500 nM (inactive) | 16900 nM (inactive) | 25500 nM (inactive)
[O-][n+]1ccc(NO)c2ccccc21 | 106 nM (active) | 1580 nM (inactive) | 1450 nM (inactive) | 1650 nM (inactive) | 1510 nM (inactive) | 883 nM (active) | 1300 nM (inactive) | 2070 nM (inactive) | 1160 nM (inactive) | 1750 nM (inactive) | 2050 nM (inactive) | 2020 nM (inactive) | 689 nM (active) | 1770 nM (inactive) | 2210 nM (inactive) | 1560 nM (inactive) | 2340 nM (inactive) | 1930 nM (inactive) | 4720 nM (inactive)
